The target of this experiment is T1, CaeLox1 (Cyclocybe aegerita, UniProt A0A8A1QR86).
T1 construct: gene LOX1; codon-optimized cDNA in pET28a, E. coli BL21-Gold (DE3), Ni-NTA purified
T1 sequence (A0A8A1QR86 1-656): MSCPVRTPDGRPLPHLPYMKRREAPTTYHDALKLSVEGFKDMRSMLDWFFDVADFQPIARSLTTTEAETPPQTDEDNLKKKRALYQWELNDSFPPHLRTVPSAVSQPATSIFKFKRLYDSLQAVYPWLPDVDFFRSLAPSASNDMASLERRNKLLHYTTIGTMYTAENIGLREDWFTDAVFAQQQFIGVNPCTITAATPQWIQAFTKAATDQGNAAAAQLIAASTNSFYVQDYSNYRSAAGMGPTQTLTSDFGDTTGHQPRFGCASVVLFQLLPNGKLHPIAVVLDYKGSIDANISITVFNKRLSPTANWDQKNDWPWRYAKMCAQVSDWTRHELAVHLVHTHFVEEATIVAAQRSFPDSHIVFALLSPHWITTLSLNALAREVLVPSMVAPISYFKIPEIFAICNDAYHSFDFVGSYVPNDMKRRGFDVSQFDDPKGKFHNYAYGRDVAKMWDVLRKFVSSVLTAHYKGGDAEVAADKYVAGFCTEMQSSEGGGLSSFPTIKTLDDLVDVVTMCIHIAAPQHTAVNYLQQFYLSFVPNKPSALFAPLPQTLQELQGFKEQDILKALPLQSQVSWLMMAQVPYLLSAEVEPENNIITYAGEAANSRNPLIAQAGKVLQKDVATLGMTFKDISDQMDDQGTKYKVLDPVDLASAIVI
The experiment in a line: conjugated diene formation at […] nm, specific activity. Type of experiment: biochemical. As to conditions: 1.25 mM PUFA, 50 mM phosphate pH 7.5, 25 °C.

For the molecule `CCCCC/C=C\C/C=C\CCCCCCCC(=O)O` [LA, linoleic acid], the specific activity entry is given as “we investigated the specific activities of PUFAs occurring (linoleic acid, linolenic acid)”.

The record behind these values is article PMC7933318, “Engineering a lipoxygenase from cyclocybe aegerita towards long chain polyunsaturated fatty acids” (AMB Express, 2021).
